Test results reported in PubChem BioAssay (NCI).
Where “and” joins values, the source holds several entries; their conditions need not be identical. Equal entries are not always repeated.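 Where inhibition never reached the appropriate level, the endpoint shown equals the highest concentration tested. Otherwise, values were interpolated linearly from a five-concentration, 48-hour dose response in 96-well plates. GI50 = concentration required for 50% inhibition of growth. TGI denotes the concentration required for complete inhibition of growth.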

Legend:
Assay in all cases: NCI tumour cell line growth inhibition, 48 h
[1] = tested on: 786-0 renal
[2] = tested on: A498 renal
[3] = tested on: A549 NSCLC
[4] = tested on: ACHN renal
[5] = tested on: BT-549 breast
[6] = tested on: CAKI-1 renal
[7] = tested on: CCRF-CEM leukemia
[8] = tested on: COLO 205 colon
[9] = tested on: DU-145 prostate
[10] = tested on: EKVX NSCLC
[11] = tested on: HCC-2998 colon
[12] = tested on: HCT-116 colon
[13] = tested on: HCT-15 colon
[14] = tested on: HL-60(TB) leukemia
[15] = tested on: HOP-62 NSCLC
[16] = tested on: HOP-92 NSCLC
[17] = tested on: HS 578T breast
[18] = tested on: HT29 colon
[19] = tested on: IGROV1 ovarian
[20] = tested on: K-562 leukemia
[21] = tested on: KM12 colon
[22] = tested on: LOX IMVI melanoma
[23] = tested on: M14 melanoma
[24] = tested on: MALME-3M melanoma
[25] = tested on: MCF7 breast
[26] = tested on: MDA-MB-231 breast
[27] = tested on: MDA-MB-435
[28] = tested on: MOLT-4 leukemia
[29] = tested on: NCI-H226 lung
[30] = tested on: NCI-H23 lung
[31] = tested on: NCI-H460 lung
[32] = tested on: NCI-H522 lung
[33] = tested on: NCI/ADR-RES ovarian
[34] = tested on: OVCAR-3 ovarian
[35] = tested on: OVCAR-4 ovarian
[36] = tested on: OVCAR-5 ovarian
[37] = tested on: OVCAR-8 ovarian
[38] = tested on: PC-3 prostate
[39] = tested on: RPMI-8226 leukemia
[40] = tested on: RXF 393 renal
[41] = tested on: SF-268 CNS
[42] = tested on: SF-295 CNS
[43] = tested on: SF-539 CNS
[44] = tested on: SK-MEL-2 melanoma
[45] = tested on: SK-MEL-28 melanoma
[46] = tested on: SK-MEL-5 melanoma
[47] = tested on: SK-OV-3 ovarian
[48] = tested on: SN12C renal
[49] = tested on: SNB-19 CNS
[50] = tested on: SNB-75 CNS
[51] = tested on: SR leukemia
[52] = tested on: SW-620 colon
[53] = tested on: T-47D breast
[54] = tested on: TK-10 renal
[55] = tested on: U251 CNS
[56] = tested on: UACC-257 melanoma
[57] = tested on: UACC-62 melanoma
[58] = tested on: UO-31 renal
[59] = tested on: MDA-N

## N#CCNC(=O)c1ccc(-c2ccnc(Nc3ccc(N4CCOCC4)cc3)n2)cc1
[1]
  GI50: 1.56 µM and 1.26 µM
  TGI: > 10 µM and 13.1 µM
[2]
  GI50: 2.35 µM and 1.91 µM
  TGI: 8.73 µM and 7.66 µM
[3]
  GI50: 4.47 µM and 1.75 µM
  TGI: > 10 µM and 12.4 µM
[4]
  GI50: 1.35 µM and 0.531 µM
  TGI: > 37.1 µM
[5]
  GI50: 2.24 µM and 1.54 µM
  TGI: > 10 µM and 5.8 µM
[6]
  GI50: 0.513 µM and 0.273 µM
  TGI: 3.72 µM and 3.03 µM
[7]
  GI50: 2.5 µM and 2.51 µM
  TGI: > 30 µM
[8]
  GI50: 3.17 µM and 2.96 µM
  TGI: > 31.5 µM
[9]
  GI50: 2.62 µM and 1.65 µM
  TGI: > 100 µM
[10]
  GI50: > 10 µM
  TGI: > 10 µM
[11]
  GI50: > 10 µM and 3.98 µM
  TGI: > 10 µM and 47.4 µM
[12]
  GI50: 1.49 µM and 1.19 µM
  TGI: > 24.8 µM
[13]
  GI50: 3.1 µM and 2.3 µM
  TGI: > 100 µM
[14]
  GI50: 4.79 µM and 3.14 µM
  TGI: > 100 µM
[15]
  GI50: 1.88 µM and 2.12 µM
  TGI: > 10 µM and 16.4 µM
[16]
  GI50: 0.511 µM and 0.153 µM
  TGI: 9.61 µM and 10.7 µM
[17]
  GI50: 0.506 µM and 0.42 µM
  TGI: 4.86 µM and 12.9 µM
[18]
  GI50: 5.71 µM and 5.38 µM
  TGI: > 100 µM
[19]
  GI50: 1.69 µM and 1.24 µM
  TGI: > 10 µM and 20.3 µM
[20]
  TGI: > 100 µM
[21]
  GI50: 3.23 µM and 3.85 µM
  TGI: > 74 µM
[22]
  GI50: 1.74 µM and 1.35 µM
  TGI: > 44.9 µM
[23]
  GI50: 4.47 µM and 4.29 µM
  TGI: > 100 µM
[24]
  GI50: 6.44 µM and 1.26 µM
  TGI: > 10 µM and 18.1 µM
[25]
  GI50: 1.78 µM and 1.54 µM
  TGI: > 10 µM and 21.4 µM
[26]
  GI50: 2.26 µM and 2.19 µM
  TGI: > 100 µM
[27]
  GI50: 4.75 µM and 2.82 µM
  TGI: > 100 µM
[28]
  GI50: 2.78 µM and 2.6 µM
  TGI: > 100 µM
[29]
  GI50: 0.754 µM and 0.531 µM
  TGI: 7.01 µM and 21.1 µM
[30]
  GI50: 2.71 µM and 1.87 µM
  TGI: > 10 µM and 38.4 µM
[31]
  GI50: 2.5 µM and 1.36 µM
  TGI: > 10 µM and 11.3 µM
[32]
  GI50: 1.22 µM and 0.713 µM
  TGI: > 10 µM and 21.5 µM
[33]
  GI50: > 10 µM and 12.4 µM
  TGI: > 100 µM
[34]
  GI50: 7.77 µM and 5.78 µM
  TGI: > 10 µM and 46.6 µM
[35]
  GI50: 5.94 µM and 13.3 µM
  TGI: > 10 µM and 44.9 µM
[36]
  GI50: 3.43 µM and 4.07 µM
  TGI: > 54.4 µM
[37]
  GI50: 4.26 µM and 3.16 µM
  TGI: > 73.6 µM
[38]
  GI50: 3.77 µM and 1.77 µM
  TGI: > 10 µM and 38.8 µM
[39]
  GI50: 3.08 µM and 2.88 µM
  TGI: > 31.9 µM
[40]
  GI50: 1.11 µM and 0.345 µM
  TGI: 3.09 µM and 1.7 µM
[41]
  GI50: 1.78 µM and 1.41 µM
  TGI: > 10 µM and 17.7 µM
[42]
  GI50: 4.56 µM and 1.94 µM
  TGI: > 10 µM and 16.6 µM
[43]
  GI50: 2.29 µM and 1.14 µM
  TGI: > 10 µM and 10.4 µM
[44]
  GI50: 3.97 µM and 2.48 µM
  TGI: > 10 µM and 19 µM
[45]
  GI50: 4.49 µM and 2.56 µM
  TGI: > 10 µM and 20.3 µM
[46]
  GI50: 4.61 µM
  TGI: 38.7 µM
[47]
  GI50: 4.04 µM and 3.83 µM
  TGI: > 10 µM and 24.7 µM
[48]
  GI50: 2.73 µM and 0.992 µM
  TGI: > 100 µM
[49]
  GI50: 7.23 µM and 10.2 µM
  TGI: > 10 µM and 78.4 µM
[50]
  GI50: 0.621 µM and 0.186 µM
  TGI: 5.6 µM and 4.17 µM
[51]
  GI50: 0.498 µM and 0.458 µM
  TGI: 3.88 µM and 5.47 µM
[52]
  GI50: 3.97 µM and 3.46 µM
  TGI: > 100 µM
[53]
  GI50: > 10 µM and 9.94 µM
  TGI: > 10 µM and 99.8 µM
[54]
  GI50: 0.873 µM and 0.607 µM
  TGI: 8.31 µM and 4.58 µM
[55]
  GI50: 3.46 µM and 1.79 µM
  TGI: > 10 µM and 34.8 µM
[56]
  GI50: > 10 µM and 4.39 µM
  TGI: > 100 µM
[57]
  GI50: 4.44 µM and 3.66 µM
  TGI: > 57.8 µM
[58]
  GI50: 1.1 µM and 0.36 µM
  TGI: 4.19 µM and 3.4 µM

## O=[N+]([O-])/C=C/c1cn(CCCCCCCCCCCCn2cc(/C=C/[N+](=O)[O-])c3ccccc32)c2ccccc12
[1]
  TGI: > 100 µM
[2]
  TGI: > 100 µM
[3]
  TGI: > 100 µM
[4]
  TGI: > 100 µM
[5]
  TGI: > 100 µM
[6]
  TGI: > 100 µM
[7]
  TGI: > 100 µM
[8]
  TGI: > 100 µM
[9]
  TGI: > 100 µM
[10]
  TGI: > 100 µM
[11]
  TGI: > 100 µM
[12]
  TGI: > 100 µM
[13]
  TGI: > 100 µM
[14]
  TGI: > 100 µM
[15]
  TGI: > 100 µM
[16]
  TGI: > 100 µM
[17]
  TGI: > 100 µM
[18]
  TGI: > 100 µM
[19]
  TGI: > 100 µM
[21]
  TGI: > 100 µM
[22]
  TGI: > 100 µM
[23]
  TGI: > 100 µM
[24]
  TGI: > 100 µM
[25]
  TGI: > 100 µM
[26]
  TGI: > 100 µM
[27]
  TGI: > 100 µM
[59]
  TGI: > 100 µM
[28]
  TGI: > 100 µM
[29]
  TGI: > 100 µM
[30]
  TGI: > 100 µM
[31]
  TGI: > 100 µM
[32]
  TGI: > 100 µM
[33]
  TGI: > 100 µM
[34]
  TGI: > 100 µM
[35]
  TGI: > 100 µM
[36]
  TGI: > 100 µM
[37]
  TGI: > 100 µM
[38]
  TGI: > 100 µM
[39]
  TGI: > 100 µM
[43]
  TGI: > 100 µM
[44]
  TGI: > 100 µM
[45]
  TGI: > 100 µM
[46]
  TGI: > 100 µM
[47]
  TGI: > 100 µM
[48]
  TGI: > 100 µM
[51]
  TGI: > 100 µM
[52]
  TGI: > 100 µM
[54]
  TGI: > 100 µM
[55]
  TGI: > 100 µM
[56]
  TGI: > 100 µM
[57]
  TGI: > 100 µM
[58]
  TGI: > 100 µM
